This passage reports CC50, EC50 and IC50 results from ChEMBL document CHEMBL1133946, “An approach to the identification of potent inhibitors of influenza virus fusion using parallel synthesis methodology” (Bioorg Med Chem Lett, 2001).

One may read the CC50 as the concentration at which the toxic effect on the cells reaches its halfway point. The term EC50 denotes the concentration giving half of the maximal effect. For orientation: IC50 means the concentration that inhibits the measured activity by half. High values mean weaker potency, low ones greater potency.

The test system of test [1] is unidentified influenza virus. In words: Cytotoxicity of compound was measured against Influenza virus;in range of 8-9. It counts as functional.
Test [2] concerns unidentified influenza virus. In words: Compound tested for inhibition of influenza virus infectivity in cell culture determined by plaque reduction assay;Inactive. It counts as functional, organism-based. In general terms: Plaques are areas of infected cells; plaque reduction assays count them against a control.
Test [3] can be described thus: Compound tested for inhibition of hemolysis. It counts as functional.
The test system of test [4] is unidentified influenza virus. The test is described as follows: Cytotoxicity of compound was measured against Influenza virus. It counts as functional.
Test [5] deals with unidentified influenza virus. In words: Compound tested for inhibition of influenza virus infectivity in cell culture determined by plaque reduction assay. It counts as functional, organism-based.
Setting [6] is: unidentified influenza virus, read-out: CC50.
Where [7] appears, read: unidentified influenza virus, read-out: EC50.

≈ marks a conversion by molar mass, not a printed value.

Turning to `CC1(C)C[C@H](O)C[C@](C)(C/N=C(\S)c2cccc(Cl)c2)C1`, the half-maximal cytotoxic concentration (CC50) in test [1] was found to be 8 µg/mL (≈ 24.5 µM). In test [2], the EC50 entry was “Not Active”. The compound also returned a 50% inhibitory concentration (IC50) in test [3] of 2.5 µg/mL (≈ 7.67 µM).
In the case of `C[C@@H]1CCC[C@@H]2C[C@@H](NC(=O)c3cc(Cl)c(N)cc3O)CCN21`, the CC50 in test [4] (setting [6]) is > 100 µg/mL. Moreover, in test [5] (setting [7]), the concentration for a half-maximal effect (EC50) stood at 2 µg/mL (≈ 5.92 µM). For the same compound, the 50% inhibitory concentration (IC50) in test [3] amounted to 0.44 µg/mL (≈ 1.3 µM).
For the compound `CC1(C)C[C@H](O)C[C@@](C)(CNC(=O)c2cc(Cl)ccc2O)C1` (stereo in doubt; 11b), the CC50 in test [4] (setting [6]) was 80 µg/mL (≈ 246 µM). For the same compound, the half-maximal effective concentration (EC50) in test [5] turned out to be 0.03 µg/mL (≈ 0.0921 µM). Also, the IC50 in test [3] turned out to be 0.025 µg/mL (≈ 0.0767 µM).
For the compound `Cc1ccc(O)c(C(=O)NC[C@@]2(C)C[C@H](O)CC(C)(C)C2)c1`, the CC50 in test [4] (setting [6]) was found to be 70 µg/mL (≈ 229 µM). In addition, the EC50 in test [5] (setting [7]) was determined as 0.037 µg/mL (≈ 0.121 µM). This compound had an IC50 in test [3] of 0.033 µg/mL (≈ 0.108 µM).
With `CC1(C)C[C@H](O)C[C@@](C)(CNC(=O)c2cc(Cl)ccc2O)C1` (stereo in doubt; 10b), the CC50 in test [4] was >100 µg/mL. For the same compound, the EC50 in test [5] amounted to 0.13 µg/mL (≈ 0.399 µM). Moreover, the IC50 in test [3] amounted to 0.25 µg/mL (≈ 0.767 µM).
Consider `Cc1ccc(O)c(C(=O)NC[C@]2(C)C[C@H](O)CC(C)(C)C2)c1`, for which the CC50 in test [4] (setting [6]) was found to be 50 µg/mL (≈ 164 µM). Besides, the EC50 in test [5] (setting [7]) stood at 0.136 µg/mL (≈ 0.445 µM). The IC50 in test [3] came to 0.15 µg/mL (≈ 0.491 µM).
With `CC1(C)C[C@H](O)C[C@@](C)(CNC(=S)c2cccc(Cl)c2)C1`, the CC50 in test [4] (setting [6]) came out at 20 µg/mL (≈ 61.4 µM). Further, the concentration for a half-maximal effect (EC50) in test [5] (setting [7]) stood at 0.02 µg/mL (≈ 0.0614 µM). The concentration for half-maximal inhibition (IC50) in test [3] was 0.047 µg/mL (≈ 0.144 µM).
